Assay results taken from patent publication US5399586A, “Treatment of mammals afflicted with tumors with compounds having RXR retinoid receptor agonist activity” (Allergan, Inc., priority 1993, dated 1995).
pEC50: −log10 of the molar value. Where two headings read alike, the source gives them in different places.

How the values were obtained:
[1] = tested on: chimeric RXRα receptor protein; assay: Cationic Liposome Mediated Transfection Assay, RXRα; assay type: cell-based
Experimental: (§1) The above-mentioned Cationic Liposome Mediated Transfection Assay assay by which the activity of a test compound as a potential agonist of the RXR and RAR receptor sites is determined, is performed substantially as reported by Feigner P. L. and Holm M. (1989) Focus, 11-2, and is described below first in principle and thereafter in the form of specific instructions how to perform the assay.
(§2) In connection with this assay it is known that retinoic acid receptors arena member of the steroid/thyroid receptor super family and that they contain domains which are interchangeable within individual receptors. Thus, plasmids for chimeric retinoid receptors containing estrogen DNA binding domain and estrogen response element chloramphenicol acetyl-transferase enzyme are constructed and are grown in specific cultured bacteria. These plasmids respectively code for chimeric RARα, RARβ, RARγ, RXRα receptor proteins, and for the chloramphenicol acetyl A transferase (CAT) enzyme protein. The bacteria with these plasmids are obtainable in accordance with the procedure set forth in the article titled "Nuclear Retinoic Acid Receptors: Cloning, Analysis, and Function", M. Pfahl et al , Methods in Enzymology 189, p 256-270 (1990) which is incorporated herein by reference. The detailed procedure how to isolate the DNA plasmids from the respective bacteria is also set forth below in detail, in the form of specific instructions under the title "Supercoiled Plasmid Isolation".
Thus, in accordance with the test procedure, DNA plasmid which codes for one of the chimeric RARα, RARβ, RARγ, or RXRα receptor proteins is transfected into cultures of HeLa cells. It is for this purpose that HeLa cells are grown in a medium during the first day of the assay detailed below as the "Cationic Liposome Mediated Transfection Assay". In the transfection procedure, which is performed during the second day of the transfection assay, the DNA plasmid coding for the CAT enzyme is also added to each cell culture, in addition to the respective chimeric RARα, or RARβ etc. coding plasmid. As is known and will be readily understood by those skilled in the art, especially in view of the above-cited M. Pfahl et al. article, chimeric retinoid receptors involved in this assay include a ligand binding domain which recognizes and binds specific agonist molecules, such as retinoic acid and analogs. These chimeric protein receptors (which were constructed in accordance with the teachings of the M. Pfahl. et al, article) also contain a a DNA binding domain, which is capable of binding to the "estrogen response element" (a DNA fragment) attached to the DNA plasmid coding for the CAT enzyme. […]

HL-60 cdm-1 cells [2] = assay: Assay 2: DNA fragmentation (laddering) in HL-60 cdm-1 cells; assay type: cell-based, human; conditions: 1 μM, 48 hours; 1% agarose gel
Experimental: HL-60 cdm-1 cells were placed in a T-25 tissue culture flask in 8 ml of media (RPMI-1640 containing bovine insulin 5 mg/L, human transferin 5 mg/L and Na Selenite 5 μg/L) at a density of 2×10^5 cells/ml. AGN 191701 (Compound 1) was added to a final concentration of 1 μM (8 μl of a 1 mM stock solution) and the cells were cultured in a humidified incubator (5% CO2) at 37° C. in the dark for 48 hours. The media and cells were removed from the flask, the cells were pelleted (1100 rpm/7 min Beckman desk top centrifuge), the pellet was washed once with phosphate buffered saline (PBS) and then the pelleted cells were lysed by the addition of 200 μl of a solution containing 20 mM Tris-HCl pH 7.4, 0.4 mM EDTA, 0.4% Triton X-100. The lysate was centrifuged for 5 minutes in a microfuge (14,000 rpm) and the supernatant adjusted to a final concentration of 0.5M NaCl and 50% isopropanol. The solution was allowed to precipitate overnight at -20° C. and the precipitate that formed was pelleted in a microfuge (10 min, 14,000 rpm). The pellet was washed once in 70% ethanol, it was resuspended in 50 μl Tris EDTA (10 mM Tris HCl ph 7.4, 0.4 mM EDTA) and mixed with gel loading buffer. […] DNA was detected by ethidium bromide staining followed by visualization and photography under a UV lamp.

[3] = tested on: RAR and RXR receptor sites; assay: RAR versus RXR agonist specificity (in words); assay type: cell-based; conditions: result in words
Experimental: The data obtained in the assay are evaluated and expressed as follows. For each test compound and for each subspecies of the RAR receptors a graph (or the mathematical equivalent of a graph) is prepared where the "counts per minute" (cpm) obtained in the scintillation counter measurements are plotted (on the y axis) against the concentration of the test compound. A similar graph (or mathematical equivalent) is prepared for retinoic acid. […] This is illustrated in the graphs of FIG. 1 and FIG. 3.
This reference compound is a known agonist of the RXRα receptor site.

HL-60 cdm-1 cells [4] = assay: Assay 1: HL-60 cdm-1 cell count and microscopy after 72 hours; assay type: cell-based, human; conditions: 1 uM; for cell counts: control 5.1 × 10^+5 / ml; for inspection of microscope slides: versus control
From the text: Sedimented cells were air dried, fixed in absolute methanol, stained with a Diff-quick reagent kit, mounted in Permount and visualized by brightfield light microscopy.

[5] = tested on: chimeric RARβ receptor protein; assay: Cationic Liposome Mediated Transfection Assay, RARβ; assay type: cell-based; conditions: Table 1; 50% of maximum CAT activity of all-trans retinoic acid; HeLa cells
Experimental: as §1, §2
(§3) Thus, in accordance with the test procedure, DNA plasmid which codes for one of the chimeric RARα, RARβ, RARγ, or RXRα receptor proteins is transfected into cultures of HeLa cells. […] As is known and will be readily understood by those skilled in the art, especially in view of the above-cited M. Pfahl et al. article, chimeric retinoid receptors involved in this assay include a ligand binding domain which recognizes and binds specific agonist molecules, such as retinoic acid and analogs. […]

HL-60 cdm-1 cells [6] = assay: Assay 3: morphology of HL-60 cdm-1 cells at 4 hours, 48 hours, 6 days; assay type: cell-based, human; conditions: 3 μl of 1 mM stock in 3 ml
Experimental: HL-60 cdm-1 cells were plated in a 6-well tissue culture plate (Falcon) in 3 ml of media (RPMI-1640 containing bovine insulin 5 mg/L, human transferrin 5 mg/L and Na Selenite 5 μg/L) at a density of 1×10^5 cells/ml. Duplicate wells received either ethanol (3 μl) or 3 μl of a stock solution of AGN 191701 (Compound 1, 1 mM in ethanol). The cells were cultured in a humidified incubator (5% CO2) at 37° C. in the dark for either 4 hours, 48 hours or 6 days. At the indicated times an aliquot of the cells (50 μl) was sedimented onto a microscope slide using a cytospin centrifuge. Sedimented cells were air dried, fixed in absolute methanol, stained with a Diffquick reagent kit, mounted in permount and visualized by brightfield light microscopy.

[7] = tested on: chimeric RARγ receptor protein; assay: Cationic Liposome Mediated Transfection Assay, RARγ; assay type: cell-based; conditions: Table 1; 50% of maximum CAT activity of all-trans retinoic acid; HeLa cells
Experimental: as §1, §2, §3

[8] = tested on: chimeric RARα receptor protein; assay: Cationic Liposome Mediated Transfection Assay, RARα; assay type: cell-based; conditions: Table 1; 50% of maximum CAT activity of all-trans retinoic acid; HeLa cells
Experimental: as §1
In connection with this assay it is known that retinoic acid receptors arena member of the steroid/thyroid receptor super family and that they contain domains which are interchangeable within individual receptors. Thus, plasmids for chimeric retinoid receptors containing estrogen DNA binding domain and estrogen response element chloramphenicol acetyl-transferase enzyme are constructed and are grown in specific cultured bacteria. […]
as §3

[9] = tested on: human myeloid leukemia (HL-60 cdm1-1) cells; assay: Induction of apoptotic cell death in HL-60 cdm-1 cells (general statement); assay type: cell-based; conditions: compared with ethanol control
Experimental: In the assay, the human myeloid leukemia (HL-60 cdm1-1) cells are grown in cultures, and an RXR agonist compound, such as Compound 1 (AGN 191701) or Compound 3 (AGN 191659), is added to the culture.

[10] = Table 1; 50% of maximum CAT activity of AGN 191440; HeLa cells; read-out: EC50 RXRα

| pEC50 [1, 10] | RAR / RXR agonist specificity [3] | pEC50 [5] | pEC50 [7] | pEC50 [8] | Structure (SMILES) | DNA fragmentation (laddering) (HL-60 cdm-1 cells [2]) | cell counts (HL-60 cdm-1 cells [4]) [mL⁻¹] | inspection of microscope slides (HL-60 cdm-1 cells [4]) | cell morphology at 4 hours (HL-60 cdm-1 cells [6]; 4 hours) | cell morphology at 48 hours (HL-60 cdm-1 cells [6]; 48 hours) | cell morphology after 6 days (HL-60 cdm-1 cells [6]; 6 days) | pEC50 ([1]; read-out: EC50 RXRα; Table 1; 50% of maximum CAT activity of AGN 191440; HeLa cells) | activity at RXR receptor sites [3] | apoptotic cell death [9] |
| --- | --- | --- | --- | --- | --- | --- | --- | --- | --- | --- | --- | --- | --- | --- |
| 7.17 | RXR specific agonist | 5.48 | 5.97 | – | C/C(=C\c1cc(C(=O)O)cs1)c1cc2c(cc1C)C(C)(C)CCC2(C)C [Compound 1, 2-[(E)-2-(5,6,7,8-tetrahydro-3,5,5,8,8-pentamethylnaphthalen-2-yl)propen-1-yl]thiophene-4-carboxylic acid] | pattern of DNA fragmentation | 70000 | extensive cell death, almost all cells died | nuclear pyknosis and nuclear as well as cytoplasmic hyperchromicity with the formation of cytoplasmic extensions (large blobs) | extensive cell death with numerous hyperchromatic nuclear fragments either free in the media or contained with shrunken cell remnants | the same hyperchromatic nuclear remnants are detected but in addition there are scattered multinucleated syncitial cells | – | – | – |
| 6.35 | – | 7.00 | 6.44 | 5.50 | C/C(=C\c1ccc(C(=O)O)cc1)c1cc2c(cc1C)C(C)(C)CCC2(C)C [Compound 2, reference compound] | – | – | – | – | – | – | – | – | – |
| 7.95 | pan-agonist | 7.64 | 6.82 | < 6.00 | C/C(=C\c1ccc(C(=O)O)s1)c1cc2c(cc1C)C(C)(C)CCC2(C)C [Compound 3, 2-[(E)-2-(5,6,7,8-tetrahydro-3,5,5,8-pentamethylnaphthalen-2-yl)propen-1-yl]-5-thiophenecarboxylic acid] | – | – | – | – | – | – | – | – | – |

| Structure (SMILES) | pEC50 [1, 10] | RAR / RXR agonist specificity [3] | pEC50 [5] | pEC50 [7] | pEC50 [8] | DNA fragmentation (laddering) (HL-60 cdm-1 cells [2]) | cell counts (HL-60 cdm-1 cells [4]) [mL⁻¹] | inspection of microscope slides (HL-60 cdm-1 cells [4]) | cell morphology at 4 hours (HL-60 cdm-1 cells [6]; 4 hours) | cell morphology at 48 hours (HL-60 cdm-1 cells [6]; 48 hours) | cell morphology after 6 days (HL-60 cdm-1 cells [6]; 6 days) | pEC50 ([1]; read-out: EC50 RXRα; Table 1; 50% of maximum CAT activity of AGN 191440; HeLa cells) | activity at RXR receptor sites [3] | apoptotic cell death [9] |
| --- | --- | --- | --- | --- | --- | --- | --- | --- | --- | --- | --- | --- | --- | --- |
| C/C(=C\c1ccc(C(=O)O)cc1)c1ccc2c(c1)C(C)(C)CCC2(C)C [Compound 4, reference compound] | – | specific RAR agonist | – | – | – | – | 460000 | no difference between the control | – | – | – | < 5.00 | not active at RXR receptor sites | not active and not |
